Reference: US20130204033A1, “ANTIPROLIFERATIVE COMPOUNDS, CONJUGATES THEREOF, METHODS THEREFOR, AND USES THEREOF” (Medarex, Inc., priority 2009, published 2013)
Where two headings read alike, the source gives them in different places.

Assays:
Assay type in all cases: cell-based, human
BT474 [1] = assay: 3H thymidine proliferation assay, BT474
Outline: (§1)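 Seeding: 1.0×10^4 cells/well, 3 h. Dosing: 1:3 serial dilutions, 72 h. Label: ^3H-thymidine 1.0 μCi/well for last 24 h, scintillation read; EC50 = 50% proliferation reduction.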

SW-620 = assay: ATP luminescence proliferation assay, SW-620
Outline: (§2)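 Antiproliferative EC50 values derive from luminescent ATP measurement in human tumor cells exposed for 48, 72 or 96 h to 1:3 serial dilutions of free compounds or their conjugates, with 1.0×10^3 cells seeded per well 3 h beforehand.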

HCT-15 [2] = assay: 3H thymidine proliferation assay, HCT-15
Outline: as §1

Hep3B = assay: ATP luminescence proliferation assay, Hep3B
Outline: as §2

HCT-15 [3] = assay: ATP luminescence proliferation assay, HCT-15
Outline: as §2

Raji = assay: 3H thymidine proliferation assay, Raji
Outline: as §1

HPAC = assay: ATP luminescence proliferation assay, HPAC
Description: This example generally describes the procedures used to assay the antiproliferative activity of compounds of this invention or their conjugates. Human tumor cell lines were obtained from the American Type Culture Collection (ATCC), P.O. Box 1549, Manassas, Va. 20108, USA, and cultured according to instruction from the ATCC. Cells were seeded at 1.0×10^3 or 1.0×10^4 cells/well in 96-well plates for 3 h for ATP assays or ^3H thymidine assays, respectively. 1:3 serial dilutions of free (unconjugated) compounds or their conjugates were added to the wells. Plates were allowed to incubate for 24 to 72 h. The ^3H thymidine plates were pulsed with 1.0 μCi of ^3H-thymidine per well for the last 24 hours of the total incubation period, harvested, and read on a Top Count Scintillation Counter (Packard Instruments, Meriden, Conn.). ATP levels in the ATP plates were measured using the […]-GLO® Luminescent Cell Viability kit following the manufacturer's manual and read on a GLOMAX® 20/20 luminometer (both from Promega, Madison, Wis., USA). The EC50 values—the concentration at which an agent inhibits or reduces cell proliferation by 50% —were determined using PRISM™ software, version 4.0 (GraphPad Software, La Jolla, Calif., USA).
Using the ^3H thymidine or the ATP luminescence assay, or both, the activities of compounds of this invention were assayed against the following cancer cell lines: HCT-15 (colorectal cancer, multi-drug resistant (MDR)); Hep3B (liver cancer); LNCaP (prostate cancer, androgen receptor positive (AR^+)); MDA-MB-231 (breast cancer, estrogen receptor, progesterone receptor, and Her2 negative (triple negative)); A2058 (melanoma); U-87 MG (glioblastoma); NCI-H460 (NSCLC); A549 (NSCLC); HPAC (pancreatic cancer, primary); PC3 (prostate cancer, AR); BT474 (breast cancer, Her2 highly positive (Her2hi)); SKOV3 (ovarian cancer, Her2hi); 786-O (renal cancer); UO-31 (renal cancer, MDR); NCI-H740 (SCLC); DMS53 (SCLC); SK-BR3 (breast cancer, Her2hi); ZR-75 (breast cancer, estrogen receptor positive); OVCAR3 (ovarian cancer); HL-60 (APL); OVCAR8/Adr (ovarian cancer, MDR); CEM-Cl (ALL); Nomo-1 (AML); RPMI-8226 (MM)); Raji (lymphoma); SW-480 (colorectal cancer, metastatic); SW-620 (colorectal cancer); and H226 (lung cancer). (Not all compounds were assayed against all cell lines.)
Table 3 provides the data for the ATP luminescence proliferation assays, with an incubation period of 48, 72, or 96 h, as noted.

CEM-Cl = assay: ATP luminescence proliferation assay, CEM-C1
Outline: as §2

A2058 [4] = assay: ATP luminescence proliferation assay, A2058
Outline: as §2

H740 = assay: 3H thymidine proliferation assay, H740
Outline: as §1

HL-60 = assay: 3H thymidine proliferation assay, HL-60
Outline: as §1

A2058 [5] = assay: 3H thymidine proliferation assay, A2058; conditions: 3H thymidine method, 72 h incubation
Outline: as §1

786-O = assay: 3H thymidine proliferation assay, 786-O
Outline: as §1

DMS53 = assay: 3H thymidine proliferation assay, DMS53
Outline: as §1

A549 = assay: 3H thymidine proliferation assay, A549
Outline: as §1

PC3 = assay: 3H thymidine proliferation assay, PC3
Outline: as §1

OVCAR8 = assay: 3H thymidine proliferation assay, OVCAR8
Outline: as §1

NCI-H460 = assay: 3H thymidine proliferation assay, NCI-H460
Outline: as §1

Nomo-1 = assay: 3H thymidine proliferation assay, Nomo-1
Outline: as §1

UO-31 = assay: 3H thymidine proliferation assay, UO-31
Outline: as §1

BT474 [6] = assay: ATP luminescence proliferation assay, BT474
Outline: as §2

[7] = Homo sapiens, BT-474, read-out: EC50, BT474, 3H thymidine method, 72 h incubation
[8] = Homo sapiens, SW-620, 96 h, read-out: EC50 SW-620 (96 h), ATP luminescence, SW-620, 96 h incubation
[9] = Homo sapiens, HCT-15, read-out: EC50, HCT-15, 3H thymidine method, 72 h incubation
[10] = Homo sapiens, 48 h, read-out: EC50 Hep3B (48 h), ATP luminescence, Hep3B, 48 h incubation
[11] = Homo sapiens, Raji, read-out: EC50, Raji, 3H thymidine method, 72 h incubation
[12] = Homo sapiens, 72 h, read-out: EC50 HPAC (72 h), ATP luminescence, HPAC, 72 h incubation
[13] = Homo sapiens, read-out: EC50, H740, 3H thymidine method, 72 h incubation
[14] = Homo sapiens, HL-60, read-out: EC50, HL-60, 3H thymidine method, 72 h incubation
[15] = Homo sapiens, 786-0, read-out: EC50, 786-O, 3H thymidine method, 72 h incubation
[16] = Homo sapiens, DMS-53, read-out: EC50, DMS53, 3H thymidine method, 72 h incubation
[17] = Homo sapiens, A549, read-out: EC50, A549, 3H thymidine method, 72 h incubation
[18] = Homo sapiens, PC-3, read-out: EC50, PC3, 3H thymidine method, 72 h incubation
[19] = Homo sapiens, OVCAR-8, read-out: EC50, OVCAR8, 3H thymidine method, 72 h incubation
[20] = Homo sapiens, NCI-H460, read-out: EC50, NCI-H460, 3H thymidine method, 72 h incubation
[21] = Homo sapiens, NOMO-1, read-out: EC50, Nomo-1, 3H thymidine method, 72 h incubation
[22] = Homo sapiens, UO-31, read-out: EC50, UO-31, 3H thymidine method, 72 h incubation
[23] = Homo sapiens, BT-474, 48 h, read-out: EC50 BT474 (48 h), ATP luminescence, BT474, 48 h incubation

## CCC[C@H](NC(=O)[C@H](Cc1ccccc1)NC(=O)c1csc([C@@H](C[C@H](C(C)C)N(C)C(=O)[C@@H](NC(=O)[C@H]2CCCCN2C)[C@@H](C)CC)OC)n1)C(=O)OC [Compound 19]
BT474 [1]; 3H thymidine method, 72 h incubation, read-out: EC50, BT474
  EC50: > 100 nM
SW-620; ATP luminescence, SW-620, 96 h incubation, read-out: EC50 SW-620 (96 h)
  EC50: 14 nM
HCT-15 [2]; 3H thymidine method, 72 h incubation, read-out: EC50, HCT-15
  EC50: 1070 nM
Hep3B; ATP luminescence, 48 h incubation, read-out: EC50 Hep3B (48 h)
  EC50: 18 nM
HCT-15 [3]; ATP luminescence, HCT-15, 72 h incubation, read-out: EC50 HCT-15 (72 h)
  EC50: 245 nM
Raji; 3H thymidine method, 72 h incubation, read-out: EC50, Raji
  EC50: 32 nM
HPAC; ATP luminescence, 72 h incubation, read-out: EC50 HPAC (72 h)
  EC50: 0.33 nM
CEM-Cl; ATP luminescence, CEM-C1, 72 h incubation, read-out: EC50 CEM-C1 (72 h)
  EC50: 11 nM
A2058 [4]; ATP luminescence, A2058, 72 h incubation, read-out: EC50 A2058 (72 h)
  EC50: 26 nM
H740; 3H thymidine method, 72 h incubation, read-out: EC50, H740
  EC50: 3.8 nM
HL-60; 3H thymidine method, 72 h incubation, read-out: EC50, HL-60
  EC50: 37 nM
A2058 [5]
  EC50: 0.13 nM
786-O; 3H thymidine method, 72 h incubation, read-out: EC50, 786-O
  EC50: > 100 nM
DMS53; 3H thymidine method, 72 h incubation, read-out: EC50, DMS53
  EC50: > 100 nM
A549; 3H thymidine method, 72 h incubation, read-out: EC50, A549
  EC50: > 100 nM
PC3; 3H thymidine method, 72 h incubation, read-out: EC50, PC3
  EC50: > 100 nM
OVCAR8; 3H thymidine method, 72 h incubation, read-out: EC50, OVCAR8
  EC50: 69 nM
NCI-H460; 3H thymidine method, 72 h incubation, read-out: EC50, NCI-H460
  EC50: > 100 nM
Nomo-1; 3H thymidine method, 72 h incubation, read-out: EC50, Nomo-1
  EC50: 1.3 nM
UO-31; 3H thymidine method, 72 h incubation, read-out: EC50, UO-31
  EC50: > 100 nM
BT474 [6]; ATP luminescence, BT474, 48 h incubation, read-out: EC50 BT474 (48 h)
  EC50: 8.8 nM

## CC[C@H](C)[C@H](NC(=O)[C@H]1CCCCN1C)C(=O)N(COC(=O)CC(C)C)[C@H](C[C@@H](OC(C)=O)c1nc(C(=O)N[C@@H](Cc2ccc(N)cc2)CC(C)C(=O)O)cs1)C(C)C (stereo partly drawn) [Compound 54]
BT474 [1]; [7]
  EC50: 8.8 nM
SW-620; [8]
  EC50: 1.1 nM
HCT-15 [2]; [9]
  EC50: 0.44 nM
Hep3B; [10]
  EC50: 1.5 nM
HCT-15 [3]; Homo sapiens, HCT-15, 72 h, read-out: EC50 HCT-15 (72 h), ATP luminescence, HCT-15, 72 h incubation
  EC50: 2.6 nM
Raji; [11]
  EC50: 0.2 nM
HPAC; [12]
  EC50: 0.96 nM
CEM-Cl; Homo sapiens, CEM/C1, 72 h, read-out: EC50 CEM-C1 (72 h), ATP luminescence, CEM-C1, 72 h incubation
  EC50: 1.2 nM
A2058 [4]; Homo sapiens, A2058, 72 h, read-out: EC50 A2058 (72 h), ATP luminescence, A2058, 72 h incubation
  EC50: 1.4 nM
H740; [13]
  EC50: 10 nM
HL-60; [14]
  EC50: 0.53 nM
A2058 [5]; Homo sapiens, A2058
  EC50: 0.64 nM
786-O; [15]
  EC50: 6.9 nM
DMS53; [16]
  EC50: 2 nM
A549; [17]
  EC50: 0.24 nM
PC3; [18]
  EC50: 0.82 nM
OVCAR8; [19]
  EC50: 2.1 nM
NCI-H460; [20]
  EC50: 0.31 nM
Nomo-1; [21]
  EC50: 0.77 nM
UO-31; [22]
  EC50: 1.3 nM
BT474 [6]; [23]
  EC50: 4.8 nM

## CC[C@H](C)[C@H](NC(=O)[C@H]1CCCCN1C)C(=O)N(C)[C@H](C[C@@H](OC)c1nc(C(=O)N[C@H](CCC(=O)OC)Cc2ccccc2)cs1)C(C)C [Compound 26]
BT474 [1]; [7]
  EC50: 11 nM
SW-620; [8]
  EC50: 48 nM
HCT-15 [2]; [9]
  EC50: 31 nM
Hep3B; [10]
  EC50: 100 nM
HCT-15 [3]; Homo sapiens, HCT-15, 48 h, read-out: EC50 HCT-15 (48 h), ATP luminescence, HCT-15, 48 h incubation
  EC50: 113 nM
Raji; [11]
  EC50: 7 nM
HPAC; [12]
  EC50: 279 nM
CEM-Cl; Homo sapiens, CEM/C1, 48 h, read-out: EC50 CEM-C1 (48 h), ATP luminescence, CEM-C1, 48 h incubation
  EC50: 61 nM
A2058 [4]; Homo sapiens, A2058, 48 h, read-out: EC50 A2058 (48 h), ATP luminescence, A2058, 48 h incubation
  EC50: 93 nM
H740; [13]
  EC50: 3 nM
HL-60; [14]
  EC50: 0.45 nM
A2058 [5]; Homo sapiens, A2058
  EC50: 25 nM
786-O; [15]
  EC50: 26 nM
DMS53; [16]
  EC50: 99 nM
A549; [17]
  EC50: 18 nM
PC3; [18]
  EC50: 16 nM
OVCAR8; [19]
  EC50: 201 nM
NCI-H460; [20]
  EC50: 18 nM
Nomo-1; [21]
  EC50: 0.36 nM
UO-31; [22]
  EC50: 50 nM
BT474 [6]; [23]
  EC50: 19 nM
